In patent publication US4726941A, “Acylated cyanamide composition for treating ethanol ingestion” (Regents of the University of Minnesota, priority 1986, dated 1988):
Like-named read-outs stand apart in the source and are kept apart here.

Legend:
[1] = system: AlDH; experiment: Initial screen: elevation of blood acetaldehyde (AcH) after ethanol in rats, prodrug 1.0 mmol/kg ip; format: in vivo; conditions: rat; for potency in elevating ethanol-derived blood AcH (in words): 3 hours post-drug; for duration of action / blood AcH at 16 hours (in words): 16 hours post-drug; for elevation of blood AcH over controls at 16 hours: ethanol 2 g/kg ip at 15 hours, sacrifice 16 hours post-drug; for elevation of blood AcH over drug-free controls at 3 hours: ethanol 2 g/kg ip at 2 hours, sacrifice 3 hours post-drug
Procedure: Compounds 1-11 were evaluated in rats for their ability to elevate and maintain blood acetaldehyde (AcH) levels following ethanol administration employing the methodology outlined in Table I.
1. Drug Dose: 1.0 mmol/kg (ip)
2. Animals: Male rats of Sprague-Dawley descent (BioLab, Inc., St. Paul, MN), weighing 185-225 g were used. Four animals were used for each drug administration protocol.
3. Timing: Animals were fasted beginning at 7:00 or 8:00 AM. One group of rats were administered the prodrug at 5:00 PM (zero time) and ethanol (2 g/kg, ip) at 8:00 AM (15 hours), and the animals were sacrificed at 9:00 AM (16 hours). A second set of rats received the prodrug at 6:30 AM (zero time) and ethanol at 8:30 AM (2 hours) and the animals were sacrificed at 9:30 AM (3 hours). Cyanamide treated animals (1.0 mmol/kg) served as positive control. Blood AcH levels were determined as described hereinbelow.
(§1) Blood AcH levels were measured 1 hour after ethanol (2 g/kg, ip) in treated and control animals essentially as described by Shirota et al., in J. Med Chem., 23, 669 (1980). The animal was stunned by a quick blow to the head and blood was immediately withdrawn by open chest cardiac puncture. Aliquots (0.2 ml) were placed in 20 ml serum vials containing 1.0 ml of 5 mM sodium azide (to minimize the artifactual generation of AcH from ethanol), and the vials immediately capped with a rubber septum, frozen on Dry Ice, and kept frozen at -20° C. until assayed. AcH was determined in duplicate by the head-space gas chromatographic procedure previously described by Nagasawa et al., in Life Sci., 20, 187 (1977), and quantitated using a standard curve based on standards with known concentrations of AcH.

[2] = system: AlDH; experiment: Time course protocol (72 hour), ip: blood AcH after ethanol in rats; format: in vivo; conditions: rat; for duration of blood AcH elevation over 72-hour time course (in words) / time at which blood AcH elevation reached maximum: FIG. 5 (0.5 mmol/kg); for time at which blood AcH elevation reached maximum: ethanol 2 g/kg ip 1 hour before sacrifice
Procedure: FIG. 5 is a graphic depiction of the effectiveness of four of the compositions of the invention in elevating blood AcH following ethanol administration in rats over a 72 hour time course (0.5 mmol/kg i.p. dose).
(§2) 1. Drug Dose: 0.5 mmol/kg (ip); 1.0 mmol/kg (po)
(§3) 2. Animals: Male rats of Sprague-Dawley descent (BioLab, Inc., St. Paul, MN), weighing 176-200 g were used. Two animals were used for each drug administration protocol.
(§4) 3. Timing: Overnight fasted animals were administered the prodrug at zero time, ethanol (2 g/kg, ip) at 1, 4, 11, 23, 35, 47 and 71 hours and sacrificed 1 hour subsequent to each ethanol administration. Cyanamide treated animals (1.0 mmol/kg) served as positive control.
as §1

[3] = system: AlDH; experiment: Time course protocol (72 hour), oral: blood AcH after ethanol in rats; format: in vivo; conditions: rat, 1.0 mmol/kg po, FIG. 6
Procedure: FIG. 6 is a graphic depiction of the effectiveness of palmitoylcyanamide and N-benzoyl-L-leucylcyanamide, administered orally, in elevating blood AcH following ethanol administration in rats over a 72 hour time course.
as §2, §3, §4, §1

[4] = system: aldehyde dehydrogenase (AlDH); conditions: clinical use, background statement; cited from earlier work
[5] = system: aldehyde dehydrogenase (AlDH); conditions: without enzymatic activation, cited from earlier work
[6] = rat, within 6 hours; cited from earlier work
[7] = Stability of the purified compound on standing; format: physicochemical; conditions: clear colorless liquid, storage at 5° C.
Procedure: n-Butyryl chloride (3.2 g, 3.12 ml, 0.030 mol) in 50 ml of freshly distilled dry THF was added drop-wise to a suspension of sodium cyanamide (5.76 g, 0.090 mol) in 100 ml of freshly distilled dry THF at ice bath temperature. The reaction was allowed to proceed at room temperature for 24 hours and then the mixture evaporated to dryness in vacuo. The resulting yellow solid residue was dissolved in distilled water (50 ml) and the alkaline solution was adjusted to pH 6.5 with 10% HCl. The mixture was then extracted with ethyl acetate (2×50 ml). […] TLC: Rf =0.6 in EtOAC/petroleum ether/AcOH (50:100:1), detected by UV quenching and orange color with ferricyanide spray reagent; IR (neat, cm^-1) 3100-3250 (NH), 2860-2960 (alkyl), 2260 (C≡N), 1725 (C=0); NMR (Silanor C, δ from TMS) 8.2-8.5 (broad, NH), 2.3-2.6 (t, --CH2 --CH2 --C=O), 1.5-1.9 (sextet, CH3 --CH2 --CH2 --), 0.8-1.1 (t, CH3 --CH2 --); CI--MS (NH 3 : positive) m/z (rel. intensity) 147 (12.6, [(M+1)+2NH3 ]), 130 (100.0) [(M+1)+NH3 ], 105 (5.2) [(M+1)+2NH3 --H2 NCN]; CI--MS (NH3 : negative) m/z (rel. intensity) 111 (100.0) [M-1], 68 (2.0) [(M-1)--CH3 CH2 CH2 ], 41 (16.7) [(M-1)--CH3 CH2 CH=C=O].

CC(C)C[C@H](NC(=O)c1ccccc1)C(=O)NC#N [Compound 11, N-Benzoyl-L-leucylcyanamide]
potency in elevating ethanol-derived blood AcH (in words) [1]: elevated blood AcH levels
duration of action / blood AcH at 16 hours (in words) [1]: long-acting with significant levels of blood AcH present
duration of blood AcH elevation over 72-hour time course (in words) [2]: continued to maintain elevated blood AcH even at 72 hours
initial blood AcH level at 2 hours compared with cyanamide ([2]; FIG. 5, 2 hours): less than cyanamide
time at which AcH levels once again increased [3]: 24 h
time at which blood AcH fell back to control levels [3]: around 36 hours
time of maximum AcH levels [3]: 2 h
time of trough of AcH levels [3]: 12 h

CC(C)C[C@H](NC(=O)CNC(=O)OCc1ccccc1)C(=O)NC#N [Compound 12, N-Cbz-glycyl-L-leucylcyanamide]
potency in elevating ethanol-derived blood AcH (in words) [1]: more potent than (9)
duration of action / blood AcH at 16 hours (in words) [1]: did not maintain significantly elevated blood AcH level

N#CNC(=O)c1ccccc1 [Compound 2, Benzoylcyanamide]
elevation of blood AcH over controls at 16 hours [1]: 10 fold

N#CNC(=O)[C@@H]1CCC(=O)N1C(=O)OCc1ccccc1 [Compound 13, N-Cbz-L-pyroglutamylcyanamide]
potency in elevating ethanol-derived blood AcH (in words) [1]: not nearly as potent as the other prodrugs

[Ca+2].[N-]=C=[N-] [calcium carbimide]
duration of activity [4]: approximately 24 hours

N#CNC(=O)[C@H](Cc1ccccc1)NC(=O)[C@@H]1CCC(=O)N1 [Compound 15, L-Pyroglutamyl-L-phenylalanylcyanamide]
potency in elevating ethanol-derived blood AcH (in words) [1]: very potent inhibitor of AlDH in vivo
elevation of blood AcH over drug-free controls at 3 hours [1]: more than 110 fold

CCCCCCCCCCCCCCCC(=O)NC#N [Compound 6, Palmitoylcyanamide]
potency in elevating ethanol-derived blood AcH (in words) [1]: almost as potent as cyanamide
elevation of blood AcH over controls at 16 hours [1]: 100 fold
duration of blood AcH elevation over 72-hour time course (in words) [2]: significantly elevated even at 48 hours
time at which blood AcH elevation reached maximum [2]: around 5 hours
time at which AcH levels once again increased [3]: 24 h
time at which blood AcH fell back to control levels [3]: around 36 hours
time of maximum AcH levels [3]: 2 h
time of trough of AcH levels [3]: 12 h

CC(C)C[C@H](NC(=O)[C@@H]1CCC(=O)N1)C(=O)NC#N [Compound 14, L-Pyroglutamyl-L-leucylcyanamide]
potency in elevating ethanol-derived blood AcH (in words) [1]: not nearly as potent as the other prodrugs

N#CN [Cyanamide, cyanamide]
elevation of blood AcH over drug-free controls at 3 hours [1]: 150 fold
elevation of blood AcH over controls at 16 hours [1]: more than 25 fold
duration of blood AcH elevation over 72-hour time course (in words) [2]: fell rapidly almost to control values at 36 hours
time at which blood AcH elevation reached maximum [2]: ≤ 2 h
AlDH inhibitory activity in vitro ([5]; listed as cyanamide): devoid of AlDH inhibitory activity in vitro
AlDH inhibitory activity in vitro [5]: does not inhibit AlDH
administered cyanamide eliminated as acetylcyanamide in the urine [6]: At least 94%

N#CNC(=O)CNC(=O)c1ccccc1.N#CNC(=O)CNC(=O)c1ccccc1 [Compound 10, N-Benzoylglycylcyanamide (Hippurylcyanamide)]
potency in elevating ethanol-derived blood AcH (in words) [1]: less potent than N-benzoyl-L-leucylcyanamide (11)
duration of action / blood AcH at 16 hours (in words) [1]: long-acting with significant levels of blood AcH present
duration of blood AcH elevation over 72-hour time course (in words) [2]: failed to maintain elevated blood AcH past 12 hours

N#CNC(=O)CNC(=O)OCc1ccccc1 [Compound 9, N-Carbobenzoxyglycylcyanamide]
duration of action / blood AcH at 16 hours (in words) [1]: reduced to almost control levels
elevation of blood AcH over drug-free controls at 3 hours [1]: more than 80 fold

CCCCCCCCCCCCCCCCCC(=O)NC#N [Compound 7, Stearoylcyanamide]
potency in elevating ethanol-derived blood AcH (in words) [1]: almost as potent as cyanamide
elevation of blood AcH over controls at 16 hours [1]: more than 50 fold
duration of blood AcH elevation over 72-hour time course (in words) [2]: gradually fell
time at which blood AcH elevation reached maximum [2]: around 5 hours

N#CNC(=O)C12CC3CC(CC(C3)C1)C2.N#CNC(=O)C12CC3CC(CC(C3)C1)C2 [Compound 4, 1-Adamantanecarbonyl Cyanamide (1-Adamantoylcyanamide)]
potency in elevating ethanol-derived blood AcH (in words) [1]: very potent
duration of action / blood AcH at 16 hours (in words) [1]: short acting

CC(=O)NC#N.[Na] [Compound 1, Sodium Acetylcyanamide]
potency in elevating ethanol-derived blood AcH (in words) [1]: much weaker than cyanamide
elevation of blood AcH over drug-free controls at 3 hours [1]: 25 fold

CC(=O)NC#N [AC, acetylcyanamide]
AlDH inhibitory activity in vitro [5]: devoid of AlDH inhibitory activity in vitro

CCCC(=O)NC#N [Compound 5, n-Butyrylcyanamide]
potency in elevating ethanol-derived blood AcH (in words) [1]: even more potent than cyanamide itself
duration of action / blood AcH at 16 hours (in words) [1]: short-acting
elevation of blood AcH over drug-free controls at 3 hours [1]: 170 fold
elevation of blood AcH over controls at 16 hours [1]: approximately 20 fold
stability on standing [7]: decomposes on standing even at 5 °C after prolonged periods

CC(C)(C)C(=O)NC#N [Compound 3, Pivaloylcyanamide]
potency in elevating ethanol-derived blood AcH (in words) [1]: very potent
duration of action / blood AcH at 16 hours (in words) [1]: short acting

N#CNC(=O)OCc1ccccc1.[Na] [Compound 8, N-Carbobenzoxycyanamide, Sodium Salt]
elevation of blood AcH over drug-free controls at 3 hours [1]: 120 fold
